Measurements: US10653672B2, “Myogenesis promotor, muscle atrophy inhibitor, medical composition and TAZ activator” (National University Corporation Tokyo Medical and Dental …, priority 2014, dated 2020)
Where “and” joins values, the source holds several entries; their conditions need not be identical. Identical values can stand only once.

How the values were obtained:
[1] = molecular target: T1, interaction of TAZ and MyoD (Homo sapiens, UniProt Q9GZV5); assay: Immunoprecipitation of FLAG-TAZ and HA-MyoD in HEK 293 cells; assay type: cell-based; conditions: HEK 293 expressing FLAG-TAZ and HA-MyoD
T1 construct: expressed in transfected cells; host or cells: HEK 293 (human embryonic kidney cells)
T1 sequence (Q9GZV5 whole entry): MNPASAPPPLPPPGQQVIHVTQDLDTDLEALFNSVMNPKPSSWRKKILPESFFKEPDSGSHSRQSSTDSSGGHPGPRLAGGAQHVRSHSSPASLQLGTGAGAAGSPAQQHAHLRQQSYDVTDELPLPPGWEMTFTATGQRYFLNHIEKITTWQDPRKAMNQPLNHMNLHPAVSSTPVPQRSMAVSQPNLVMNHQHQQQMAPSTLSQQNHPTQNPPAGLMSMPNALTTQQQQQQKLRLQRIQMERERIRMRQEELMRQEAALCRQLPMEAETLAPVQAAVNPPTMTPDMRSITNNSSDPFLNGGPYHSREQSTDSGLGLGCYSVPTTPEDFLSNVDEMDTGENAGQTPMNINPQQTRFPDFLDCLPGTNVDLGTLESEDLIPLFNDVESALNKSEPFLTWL
Experimental: (2) For analyzing the effects of IBS008738 on the interaction of TAZ and MyoD, immunoprecipitation was performed on human embryonic kidney cells (HEK 293) expressing FLAG-TAZ and HA-MyoD, with anti-FLAF M2 beads.

A431 cells [2] = assay: Proliferation of A431 cells in 3D matrigel; assay type: cell-based; conditions: A431 cells in 2% BD Matrigel; 10 μM; 10 days; maximum diameter of 30 cell aggregates
Experimental: (§1) (2) Each well of a 96-well plate was pre-coated with 30 μL BD Matrigel (trade name, Becton, Dickinson and Company). A431 cells were suspended in the 2% BD Matrigel at a concentration of 2.1×10^6 cells/mL. This cell solution (140 μL) was added with 0.17 μL of 10 mM IBS008739 stock solution in DMSO or 0.17 μL of DMSO, and used to layer the pre-coated wells, and proliferation in the 3D matrigel was observed (see FIG. 12B). 300 of A431 cells were placed in each well of Ultra Low Attachment 96-well plate, and cultured in a serum-free DMEM-F-12 medium containing 10 ng/mL FGF, 5 μg/mL insulin and 0.1% (w/v) BSA. Formation of tumor spheres was observed under the condition with 10 mM IBS008739 stock solution dissolved in DMSO so that the final concentration was 10 μM, or the condition with DMSO of the same volume (see FIG. 12C). The maximum diameter of 30 cell aggregates of 150 μm or more observed in the 3D matrigel or sphere formation condition) are measured as the size of 3D colony or sphere. The results are shown in Table 10 and FIGS. 12B and 12C. The line in the figure is 200 μm. The line and the error bar indicate the average value and the standard error, and ns refers to not significant.
(§2) Observation of the spheres and the 3D matrigel cultivation were performed by the following processes. […]

[3] = tested on: binding of MyoD to myogenin promoter; assay: Chromatin immunoprecipitation, MyoD on myogenin promoter; assay type: cell-based, mouse; conditions: C2C12 cells; 10 μM; differentiation condition 24 hours; protein G sepharose without antibody; listed as IBS008738
Experimental: (1) Chromatin immunoprecipitation of MyoD, TEAD and Pax3 was performed on C2C12 cells that were cultured under differentiation condition for 24 hours in a culture medium added with IBS008738 or DMSO at a concentration of 10 μM. Myogenin, connective tissue growth factor (CTGF) and MyfS were detected by PCR, respectively. The immunoprecipitation with protein G sepharose was used as a control (Mock ChIP). […] The line and the error bar in the figure indicate the average value and the standard error, *p<0.05, ***p<0.001, ns refers to not significant.
The Chromatin immunoprecipitation was performed according to the following process. C2C12 cells were cultured to confluence, and then treated with IBS008738 or DMSO at a concentration of 10 μM in a differentiation medium for 24 hours. The cells were crosslinked in 1.42% (v/v) formaldehyde for 15 minutes, and the reaction was quenched by treating with 125 mM glycine for 5 minutes. […] Shearing was analyzed by agarose gel electrophoresis. […] The immunoprecipitated DNA fragments were isolated using Chelex-100 resin and diluted by 1:2.5 for quantitative PCR analysis. Input normalized relative abundance was determined.

A431 cells [4] = assay: Tumor sphere formation of A431 cells; assay type: cell-based; conditions: Ultra Low Attachment plate, serum-free medium, 10 μM, 10 days, maximum diameter of 30 cell aggregates
Experimental: as §1, §2

M-cadherin = assay: Quantitative real-time PCR, M-cadherin; assay type: cell-based, mouse; conditions: C2C12 cells, 10 μM; for Normarized mRNA abundance, M-cadherin: listed as IBS008738
Experimental: (1) Quantitative real-time PCR was performed with C2C12 cells immediately before the induction of muscle formation (0 h), and after culturing under differentiation condition in a culture medium added with IBS008738 or DMSO at a concentration of 10 μM for 24 hours (24 h) and 72 hours (72 h), respectively. […] The line and error bar indicate the average value and the standard error, **p<0.05, and ns refers to not significant.
Evaluation was also performed under the same condition on M-cadherin, calpain 1 and caveolin 3, which are myofusion markers. As a result, there was no increase in the degree of gene transcription in the case with IBS008738.
The quantitative real-time PCR was performed with SYBER Green (Roche) and ABI7500 Realtime PCR system (Applied Biosystems).

A431 cells [5] = assay: Immunoblotting of EMT markers in A431 cells; assay type: cell-based
Experimental: (1) A431 cells, (epidermoid carcinoma), A549 cells (adenocarcinomic human alveolar basal epithelial cell) and HCT116 cells (human colon cancer) were treated with IBS008738 or DMSO, respectively, and evaluated by immunoblotting.
HEK293, A431, A549, HCT116, MCF7 and SW480 cells were cultured in Dulbecco's Modified Eagle Medium (DMEM) containing 10% fetal bovine serum (FBS), 10 mM HEPES-NaOH at pH 7.4, 100 U/ml penicillin and 100 mg/I streptomycin under 5% CO2 at 37° C.

SMILES: Cc1ccc(-n2cnc(/N=C/N3CCOCC3)c2C(=O)c2ccccc2)cc1 [exemplary compound 1]
- interaction of TAZ and MyoD compared with DMSO [1]: slightly promoted
- 3D colony size, average size (μm) (A431 cells [2]): 272.30 μm
- Input %, myogenin-p, Mock ChIP [3]: 0.05% and 0.08%
- Sphere size, average size (μm) (A431 cells [4]): 176.63 μm
- degree of gene transcription of M-cadherin (M-cadherin; 24 h and 72 h): no increase
- Normarized mRNA abundance, M-cadherin (M-cadherin; differentiation condition 24 h): 1.66 and 1.61 and 1.64
- Normarized mRNA abundance, M-cadherin (M-cadherin; differentiation condition 72 h): 0.82 and 0.87 and 0.80
- EMT markers (fibronectin, E-cadherin, N-cadherin and vimentin) compared with DMSO (A431 cells [5]): no significant difference
